According to PMC8815882, “Screening the pandemic response box identified benzimidazole carbamates, Olorofim and ravuconazole as promising drug candidates for the treatment of eumycetoma” (PLoS Neglected Tropical Diseases, 2022):
Like-named read-outs stand apart in the source and are kept apart here.

System: M. mycetomatis genome strain MM55
Test: CLSI M38-A2 based in vitro susceptibility screening (XTT or resazurin), growth at fixed concentration
Assay type: cell-based, Madurella mycetomatis
Details: Madurella mycetomatis; for Percent fungal survival at 100 µM: read-out: Percentage survival at 100um, 100 uM A (second replicate column)
[1] = mean of three replicates, read-out: Percentage survival at 25um, 25 uM mean
[2] = replicate A, read-out: Percentage survival at 25um, 25 um A
[3] = replicate B, read-out: Percentage survival at 25um, 25 uM B
[4] = replicate C, read-out: Percentage survival at 25um, 25 uM C
[5] = mean of three replicates, read-out: Percentage survival at 100um, 100 uM mean
[6] = replicate 1, read-out: Percentage survival at 100um, 100 uM A (first replicate column)
[7] = replicate 3, read-out: Percentage survival at 100um, 100 uM A (third replicate column)
[8] = first replicate column, read-out: Percentage survival at 100um, 100 uM A
[9] = second replicate column, read-out: Percentage survival at 100um, 100 uM A
[10] = third replicate column, read-out: Percentage survival at 100um, 100 uM A
[11] = mean of three, M. mycetomatis MM55, read-out: Percentage survival at 25um, 25 uM mean
[12] = replicate A, M. mycetomatis MM55, read-out: Percentage survival at 25um, 25 um A
[13] = replicate B, M. mycetomatis MM55, read-out: Percentage survival at 25um, 25 uM B
[14] = replicate C, M. mycetomatis MM55, read-out: Percentage survival at 25um, 25 uM C
[15] = mean of three, M. mycetomatis MM55, read-out: Percentage survival at 100um, 100 uM mean
[16] = replicate 1, M. mycetomatis MM55, read-out: Percentage survival at 100um, 100 uM A (first replicate column)
[17] = replicate 2, M. mycetomatis MM55
[18] = replicate 3, M. mycetomatis MM55, read-out: Percentage survival at 100um, 100 uM A (third replicate column)
[19] = mean of replicates, read-out: Percentage survival at 25um, 25 uM mean
[20] = mean of replicates, read-out: Percentage survival at 100um, 100 uM mean
[21] = replicate 1, read-out: Percentage survival at 100um, 100 uM A
[22] = replicate 2, read-out: Percentage survival at 100um, 100 uM A
[23] = replicate 3, read-out: Percentage survival at 100um, 100 uM A
[24] = mean, read-out: Percentage survival at 25um, 25 uM mean
[25] = mean, read-out: Percentage survival at 100um, 100 uM mean
[26] = replicate (first column), read-out: Percentage survival at 100um, 100 uM A
[27] = replicate (second column), read-out: Percentage survival at 100um, 100 uM A
[28] = replicate (third column), read-out: Percentage survival at 100um, 100 uM A

Cc1cccc(C)c1C(=O)Nc1nc(-c2ccccn2)cc2ccccc12 [MMV1581558]
activity at 25 µM [1]: 77.1% | activity at 25 µM [2]: 65% | activity at 25 µM [3]: 114% | activity at 25 µM [4]: 52.4% | activity at 100 µM [5]: 86% | activity at 100 µM [6]: 76.1% | Percent fungal survival at 100 µM (replicate 2): 64.3% | activity at 100 µM [7]: 118%

OC[C@@H]1CC[C@H](n2cnc3c(O)ncnc32)O1 [MMV637306]
activity at 25 µM [1]: 91.8% | activity at 25 µM [2]: 101% | activity at 25 µM [3]: 91% | activity at 25 µM [4]: 83.2% | activity at 100 µM [8]: 90.3% | activity at 100 µM [5]: 87.3% | activity at 100 µM [9]: 80.5% | activity at 100 µM [10]: 91.2%

CC(C)(C)OC(=O)NCc1ccc(C(=O)N[C@H]2CCOC2=O)cc1 [MMV1581547]
activity at 25 µM [11]: 87.5% | activity at 25 µM [12]: 95.2% | activity at 25 µM [13]: 90.1% | activity at 25 µM [14]: 77.3% | activity at 100 µM [15]: 113% | activity at 100 µM [16]: 94.9% | Percent fungal survival at 100 µM [17]: 156% | activity at 100 µM [18]: 89.2%

CN1c2ccc(Cl)cc2N(c2ccccc2)C(=O)c2cn(Cc3ccc(CN4CCOCC4)cc3)nc21 [MMV1782222]
activity at 25 µM [19]: 61.1% | activity at 25 µM [2]: 58.9% | activity at 25 µM [3]: 64.9% | activity at 25 µM [4]: 59.6% | activity at 100 µM [20]: 60.2% | activity at 100 µM [6]: 52.1% | Percent fungal survival at 100 µM (replicate 2): 70.5% | activity at 100 µM [7]: 58.2%

NC(=O)c1ccccc1NC(=O)c1ccc(C(=O)Nc2ccccc2C(N)=O)cc1 [MMV508427]
activity at 25 µM [11]: 86.7% | activity at 25 µM [12]: 92% | activity at 25 µM [13]: 87.7% | activity at 25 µM [14]: 80.3% | activity at 100 µM [15]: 95.7% | activity at 100 µM [16]: 98.6% | Percent fungal survival at 100 µM [17]: 92.7% | activity at 100 µM [18]: 95.8%

NC1C2CC3CC(C2)CC1C3 (stereo not drawn) [MMV180402]
activity at 25 µM [1]: 83.1% | activity at 25 µM [2]: 84.6% | activity at 25 µM [3]: 88.7% | activity at 25 µM [4]: 76% | activity at 100 µM [8]: 78.9% | activity at 100 µM [5]: 78% | activity at 100 µM [9]: 67.8% | activity at 100 µM [10]: 87.1%

O=C(N[C@H](CCS)C(=O)N[C@H](Cc1ccccc1)C(=O)O)c1cc2ccccc2[nH]1 [MMV1581557]
activity at 25 µM [19]: 85.4% | activity at 25 µM [2]: 88.1% | activity at 25 µM [3]: 98.1% | activity at 25 µM [4]: 70% | activity at 100 µM [20]: 83.1% | activity at 100 µM [21]: 82.1% | activity at 100 µM [22]: 85.3% | activity at 100 µM [23]: 81.8%

CC[C@H]1OC(=O)[C@H](C)[C@@H](O[C@H]2C[C@@](C)(OC)[C@@H](O)[C@H](C)O2)[C@H](C)[C@@H](O[C@@H]2O[C@H](C)C[C@H](N(C)C)[C@H]2O)[C@](C)(O)C[C@@H](C)C(=O)[C@H](C)[C@@H](O)[C@]1(C)O [MMV003137]
activity at 25 µM [11]: 82.5% | activity at 25 µM [12]: 94.8% | activity at 25 µM [13]: 79.1% | activity at 25 µM [14]: 73.6% | activity at 100 µM [15]: 79.9% | activity at 100 µM [16]: 78.2% | Percent fungal survival at 100 µM [17]: 73.7% | activity at 100 µM [18]: 87.7%

Cc1oncc1C(=O)Nc1ccc(C(F)(F)F)cc1 [MMV003291]
activity at 25 µM [1]: 85.3% | activity at 25 µM [2]: 82.1% | activity at 25 µM [3]: 92.4% | activity at 25 µM [4]: 81.5% | activity at 100 µM [8]: 55.9% | activity at 100 µM [5]: 62.5% | activity at 100 µM [9]: 52.4% | activity at 100 µM [10]: 79%

COc1ccc2sc3c(c2c1)NC(C)CNC3=O (stereo not drawn) [MMV1782115]
activity at 25 µM [1]: 53.1% | activity at 25 µM [2]: 57.6% | activity at 25 µM [3]: 74.6% | activity at 25 µM [4]: 27.1% | activity at 100 µM [5]: -0.834% | activity at 100 µM [6]: -3.17% | Percent fungal survival at 100 µM (replicate 2): -0.401% | activity at 100 µM [7]: 1.07%

CSC[C@H]1CN(Cc2c[nH]c3c(N)ncnc23)C[C@@H]1O [MMV1578565]
activity at 25 µM [11]: 80.1% | activity at 25 µM [12]: 86.7% | activity at 25 µM [13]: 77.5% | activity at 25 µM [14]: 76% | activity at 100 µM [15]: 87.9% | activity at 100 µM [16]: 88.9% | Percent fungal survival at 100 µM [17]: 83% | activity at 100 µM [18]: 91.9%

OB1OCc2c1ccc(Cl)c2F [MMV1782226]
activity at 25 µM [24]: 54.9% | activity at 25 µM [2]: 54.6% | activity at 25 µM [3]: 46.9% | activity at 25 µM [4]: 63.1% | activity at 100 µM [25]: 64.2% | activity at 100 µM [26]: 55.3% | activity at 100 µM [27]: 77.4% | activity at 100 µM [28]: 59.8%

C[C@@H](NC(=O)c1ccccc1-c1ccccc1)B(O)O [MMV1582493]
activity at 25 µM [24]: 84.3% | activity at 25 µM [2]: 92.1% | activity at 25 µM [3]: 87.2% | activity at 25 µM [4]: 73.6% | activity at 100 µM [25]: 83.3% | activity at 100 µM [26]: 92.5% | activity at 100 µM [27]: 73.6% | activity at 100 µM [28]: 83.9%

CCc1cc(Cc2cnc(N)nc2N)cc2c1N(C)CCC2C (stereo not drawn) [MMV1582490]
activity at 25 µM [19]: 67.6% | activity at 25 µM [2]: 71.5% | activity at 25 µM [3]: 64.7% | activity at 25 µM [4]: 66.5% | activity at 100 µM [20]: 69.5% | activity at 100 µM [21]: 63.4% | activity at 100 µM [22]: 83.5% | activity at 100 µM [23]: 61.6%

COc1nc2ccc(Br)cc2cc1[C@@H](c1ccccc1)[C@@](O)(CCN(C)C)c1cccc2ccccc12 [MMV689758]
activity at 25 µM [1]: 98.1% | activity at 25 µM [2]: 102% | activity at 25 µM [3]: 87.7% | activity at 25 µM [4]: 104% | activity at 100 µM [5]: 84.6% | activity at 100 µM [6]: 80.8% | Percent fungal survival at 100 µM (replicate 2): 75.9% | activity at 100 µM [7]: 97.2%

CCc1cc(O)c(Oc2ccc(C(N)=O)cc2F)cc1F [MMV1578564]
activity at 25 µM [1]: 106% | activity at 25 µM [2]: 145% | activity at 25 µM [3]: 87.1% | activity at 25 µM [4]: 85.3% | activity at 100 µM [5]: 80.4% | activity at 100 µM [6]: 82.2% | Percent fungal survival at 100 µM (replicate 2): 78.3% | activity at 100 µM [7]: 80.6%

O=c1cc(NCCCN[C@@H]2CCOc3c(Br)cc(Br)cc32)[nH]c2ccsc12 [MMV1578884]
activity at 25 µM [19]: 96.9% | activity at 25 µM [2]: 100% | activity at 25 µM [3]: 95.5% | activity at 25 µM [4]: 94.6% | activity at 100 µM [20]: 88.3% | activity at 100 µM [21]: 93% | activity at 100 µM [22]: 86.8% | activity at 100 µM [23]: 85.3%

NCc1ccc(S(N)(=O)=O)cc1 [MMV002665]
activity at 25 µM [1]: 85.4% | activity at 25 µM [2]: 82.7% | activity at 25 µM [3]: 87.5% | activity at 25 µM [4]: 86.1% | activity at 100 µM [5]: 90.8% | activity at 100 µM [6]: 98.4% | Percent fungal survival at 100 µM (replicate 2): 78.3% | activity at 100 µM [7]: 95.8%

CC(=O)Oc1ccccc1C(=O)Nc1ncc([N+](=O)[O-])s1 [MMV688991]
activity at 25 µM (mean of replicates, MM55, read-out: Percentage survival at 25um, 25 uM mean): 103% | activity at 25 µM (replicate A, MM55, read-out: Percentage survival at 25um, 25 um A): 90% | activity at 25 µM (replicate B, MM55, read-out: Percentage survival at 25um, 25 uM B): 88.2% | activity at 25 µM (replicate C, MM55, read-out: Percentage survival at 25um, 25 uM C): 131% | activity at 100 µM (mean of replicates, MM55, read-out: Percentage survival at 100um, 100 uM mean): 68% | activity at 100 µM (replicate 1, MM55, read-out: Percentage survival at 100um, 100 uM A): 76.1% | activity at 100 µM (replicate 2, MM55, read-out: Percentage survival at 100um, 100 uM A): 57.8% | activity at 100 µM (replicate 3, MM55, read-out: Percentage survival at 100um, 100 uM A): 70.1%

CC(=O)N1c2ccccc2NC2=C(C(=O)CC(C)(C)C2)C1c1ccc(OCc2ccccc2)cc1 (stereo not drawn) [MMV1580503]
activity at 25 µM [1]: 100% | activity at 25 µM [2]: 99.4% | activity at 25 µM [3]: 107% | activity at 25 µM [4]: 94.6% | activity at 100 µM [8]: 99.3% | activity at 100 µM [5]: 97.8% | activity at 100 µM [9]: 113% | activity at 100 µM [10]: 80.9%

Cc1[nH]c2ccccc2c1CC(=O)N[C@@H](Cc1ccccc1)C(=O)N(C)c1ccccc1 [MMV1580798]
activity at 25 µM [1]: 85.4% | activity at 25 µM [2]: 85.6% | activity at 25 µM [3]: 92.9% | activity at 25 µM [4]: 77.6% | activity at 100 µM [8]: 87.3% | activity at 100 µM [5]: 82.4% | activity at 100 µM [9]: 79.6% | activity at 100 µM [10]: 80.5%
